Data: paper PMC8621770, “New Compounds with Bioisosteric Replacement of Classic Choline Kinase Inhibitors Show Potent Antiplasmodial Activity” (Pharmaceutics, 2021)
Read-outs that look alike come from different tables or passages of the source.

How the values were obtained:
[1] = molecular target: T1, PfCK (Plasmodium falciparum, UniProt Q8IM71); settings: reference compounds, cited from earlier work; for inhibition of PfCK depending on substrate (in words): choline kinase or ethanolamine kinase activity; for IC50: read-out: IC50 PfCK b (compound concentration required to inhibit PfCK enzyme by 50%)
T1 construct: A truncated form of PfCK (Δ79-440) featuring an N-terminal 6× His-tag; 6xHis (N); host or cells: Escherichia coli BL21 (DE3) Star
T1 sequence (Q8IM71 entry or part of it): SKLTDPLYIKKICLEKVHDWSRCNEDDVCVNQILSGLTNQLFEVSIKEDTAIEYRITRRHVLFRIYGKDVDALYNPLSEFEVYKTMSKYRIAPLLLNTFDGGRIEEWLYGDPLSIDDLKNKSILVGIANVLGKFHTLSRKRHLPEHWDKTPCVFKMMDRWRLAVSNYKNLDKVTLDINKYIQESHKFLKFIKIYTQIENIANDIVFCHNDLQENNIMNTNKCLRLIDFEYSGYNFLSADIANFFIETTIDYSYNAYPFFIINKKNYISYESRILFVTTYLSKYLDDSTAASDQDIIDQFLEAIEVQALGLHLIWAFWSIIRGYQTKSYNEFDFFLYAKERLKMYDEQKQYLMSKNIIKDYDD

[2] = tested on: P. falciparum strain 3D7; design: method as in PMID 27616047, PMID 29880399, PMID 25089811; settings: reference compounds; read-out: IC50 a (In vitro IC50 values against P. falciparum); cited from earlier work
[3] = tested on: P. falciparum strain 3D7; test: Antimalarial activity, P. falciparum lactate dehydrogenase growth inhibition assay; format: cell-based, Plasmodium falciparum; settings: for IC50: Plasmodium falciparum; for fold difference in antimalarial activity, bipyridinyl vs biphenylic counterparts: Fg-13 and Fg-17 vs Fg-14 and Fa-21
Experimental: Parasites of the P. falciparum strain 3D7 were grown in fresh group 0 positive human erythrocytes, obtained from the Centro Regional de Transfusion Sanguínea-SAS (Granada, Spain) and suspended at 5% haematocrit in RPMI 1640 containing 2% human serum, 0.2% NaHCO3, 0.5% Albumax II, 150 μM hypoxanthine, and […] gentamicin. Flasks were incubated at 37 °C, under 5% CO2 and 95% air mixture. […] The stock culture was then diluted with complete medium and non-parasitized erythrocytes to yield a haematocrit of 2% and parasitemia of 0.25%. Stock solutions of the test drugs were prepared at an initial concentration of 200 mM in DMSO, serially diluted and dispensed into triplicate in 96-well plates to yield final concentrations ranging from 0.0039 to 2 μM. The final well volume was 200 μL with a final concentration of DMSO 0.001%. Each plate also included positive growth controls, where only medium were added, and negative growth controls with 100 nM of chloroquine. […] A multidrop dispenser was used to add 50 μL of synchronized parasite culture per well. After 72 h of growth in presence of test compounds, the plates were stored frozen at −20 °C for at least 24 h. Next, they were thawed at room temperature. Parasite growth inhibition assays and IC50 determinations were carried out following the P. falciparum lactate dehydrogenase assay where parasite viability is quantified by measuring LDH activity upon APAD+ addition, a cofactor that is specific to the Plasmodium enzyme. To evaluate LDH activity, 140 μL of freshly made reaction mix, containing 143 mM sodium L-lactate, 143 μM APAD, 178.75 μM NBT, 1 U/mL diaphorase, 0.7% Tween 20 and 100 mM Tris-HCl (pH 8.0) were dispensed into plates. After 10 min of incubation in the dark at room temperature, absorbance was measured at 630 nm with a vmax precision multiwell plate reader from Molecular Devices, by using the accompanying SOFT maxPro software for analysis.

[4] = molecular target: T1, PfCK; test: Spectrophotometric coupled enzymatic assay for PfCK activity (substrate choline); format: biochemical; settings: for remaining activity at 25 µM: read-out: PfCK Fractional Activity at 25 µM
Experimental: A truncated form of PfCK (Δ79-440) featuring an N-terminal 6× His-tag was purchased from Genescript (Piscataway, NJ, USA), cloned into a pET-28a vector and transformed into Escherichia coli BL21 (DE3) Star cells (Invitrogen, Carlsbad, CA, USA). The transformed bacteria were cultured in Luria-Bertani (LB) medium at 37 °C until OD600 = 0.6 and the expression was induced with 1 mM isopropyl β-D-1-thiogalactopyranoside (IPTG). The cell culture was grown overnight at 20 °C and 180 rpm. Cells were pelleted by centrifugation at 10,000 rpm, resuspended in 50 mM Tris/HCl pH 7.5, 500 mM NaCl, 0.2 mM phenylmethylsulphonyl fluoride (PMSF, Sigma Aldrich, St. Luis, MO, USA), DNase (Sigma Aldrich, St. Luis, MO, USA), 0.5 mM β-mercaptoethanol (Sigma Aldrich, St. Luis, MO, USA) and sonicated. Separation of the soluble from the insoluble fraction was obtained by centrifugation at 15,000 rpm and 4 °C. The target enzyme was purified by a two-step purification protocol. In the first step, the cell lysate was incubated for 45 min with Ni-NTA resin (Qiagen, Venlo, The Netherlands) in a gravity column. Then, the column was washed with 40 column volumes (CV) of 50 mM Tris/HCl pH 7.5, 300 mM NaCl, 10 mM imidazole and 1 CV of 50 mM Tris/HCl pH 7.5, 300 mM NaCl, 40 mM imidazole. Finally, the His-tagged enzyme was eluted from the column using a 50 mM Tris/HCl pH 7.5, 300 mM NaCl, 400 mM imidazole buffer. A subsequent size-exclusion chromatography step was implemented to further polish the sample using a HiPrep 26/60 Sephacryl 100 HR column (GE Healthcare, Little Chalfont, Buckinghamshire, UK) previously equilibrated with 20 mM Tris/HCl pH 7.5, 150 mM NaCl buffer. This second purification step afforded a pure protein sample. The protein production yield was estimated to be nearly 2.5 mg of recombinant enzyme per liter of bacterial culture.
A spectrophotometric 96-well plate assay for PfCK activity was established based on an assay previously described. The reaction mix was composed as follows: 100 mM Tris/HCl pH 7.5, 100 mM KCl, 10 mM MgCl2, 0.5 mM phosphoenolpyruvate, 0.25 mM NADH, 4 U of pyruvate kinase, 5 U lactate dehydrogenase, 2 mM ATP, 4 mM choline chloride and different concentrations of the selected compounds. All the necessary compounds for the assay were purchased from Sigma Aldrich (St. Luis, MO, USA) and the final assay volume was 200 μL. The enzymatic reaction was initiated by the addition of the enzyme at less than 10 nM concentration and the reaction rates were measured by monitoring the decrease in the absorbance at 340 nm for 20 min at room temperature using a Spark10M instrument (Tecan). Finally, the IC50 values for each compound were determined by plotting the enzyme fractional activity (f.a.) against the logarithm of compound concentration (log[I]). Curve-fitting was performed with a dose-response curve from Origin (OriginLab Corporation, Northampton, MA, USA), using the following equation: f.a.=1/1+10^logIC50−logI
All data points were collected in triplicate and the final dose-response curves were plotted with MATLAB (R2018a (9.4.0.813654), 2018, MathWorks, Natick, MA, USA). See curves in Figure S1 in Supplementary Materials.

[5] = Aggregation of compound solutions for the enzymatic assays; format: physicochemical; settings: even at 5 mM concentration
Text: As a result, it was difficult to measure their exact concentration, which is crucial for enzymatic assays.

[6] = Erythrocyte, P. falciparum 3D7 in human erythrocytes, 72 h, LDH readout, read-out: IC50 a (In vitro IC50 values against P. falciparum)

| Structure (SMILES) | IC50 [2] [µM] | IC50 [3, 6] [µM] | melting point [°C] | remaining activity at 25 µM [4] [%] | also measured |
| --- | --- | --- | --- | --- | --- |
| CN(C)c1cc[n+](Cc2ccc(OCCOc3ccc(C[n+]4ccc(N(C)C)cc4)cc3)cc2)cc1 [10a] | 0.016 ± 0.001 | – | – | – | inhibition of PfCK depending on substrate (in words) [1]: no inhibition of the enzyme in its choline kinase or ethanolamine kinase activity is observed |
| Clc1ccc2c(N3CCCCCC3)cc[n+](Cc3ccc(OCCOc4ccc(C[n+]5ccc(N6CCCCCC6)c6ccc(Cl)cc65)cc4)cc3)c2c1 [10k] | 0.035 ± 0.004 | – | – | – | IC50 [1]: 10.9 ± 0.124 µM |
| CN(C)c1cc[n+](Cc2ccc(-c3ccc(C[n+]4ccc(N5CCCC5)cc4)cc3)cc2)cc1 [BR-23] | 0.003 ± 0.0002 | – | – | – | inhibition of PfCK depending on substrate (in words) [1]: only had inhibitory activity when the enzyme-substrate was ethanolamine; IC50 [1]: 276 µM |
| CN(C)c1cc[n+](Cc2ccc(CCCCc3ccc(C[n+]4ccc(N5CCCC5)cc4)cc3)cc2)cc1 [BR-25] | 0.002 ± 0.0003 | – | – | – | inhibition of PfCK depending on substrate (in words) [1]: only had inhibitory activity when the enzyme-substrate was ethanolamine; IC50 [1]: 103 µM |
| CN(C)c1cc[n+](Cc2ccc(-c3ccc(C[n+]4ccc(N(C)c5ccc(Cl)cc5)cc4)cc3)cc2)cc1 [BR-31] | 0.007 ± 0.0006 | – | – | – | – |
| CN(C)c1cc[n+](Cc2ccc(CCCCc3ccc(C[n+]4ccc(N(C)c5ccc(Cl)cc5)cc4)cc3)cc2)cc1 [BR-33] | 0.045 ± 0.003 | – | – | – | – |
| [Br-].c1ccc(-c2ccc(C[n+]3cnc(N4CCCC4)c4sccc43)cc2)cc1 [Fa-M1, 1-([1,1’-biphenyl]-4-ylmethyl)-4-(pyrrolidin-1-yl)thieno[3,2-d]pyrimidin-1-ium bromide] | – | 0.041 | 295 to 298 | 54.6 ± 11.7 | aggregation [5]: severe aggregation |
| [Br-].c1ccc(-c2ccc(C[n+]3ccc(N4CCCC4)c4sccc43)cc2)cc1 [Fa-M2, 4-([1,1’-biphenyl]-4-ylmethyl)-7-(pyrrolidin-1-yl)thieno[3,2-b]pyridin-4-ium bromide] | – | 0.0489 | 271 to 273 | 101 ± 13.7 | aggregation [5]: severe aggregation |
| [Br-].[Br-].c1cc2c(N3CCCC3)nc[n+](Cc3ccc(-c4ccc(C[n+]5cnc(N6CCCC6)c6ccsc65)cn4)nc3)c2s1 [Fg-13, 1,1’-([2,2’-bipyridine]-5,5’-diylbis(methylene))bis(4-(pyrrolidin-1-yl)thieno[2,3-d]pyrimidin-1-ium) bromide] | – | 0.143 | 238 to 240 | 99.1 ± 12 | fold difference in antimalarial activity, bipyridinyl vs biphenylic counterparts [3]: > 10 fold |
| [Br-].[Br-].c1cc2c(N3CCCC3)nc[n+](Cc3ccc(CCc4ccc(C[n+]5cnc(N6CCCC6)c6ccsc65)cc4)cc3)c2s1 [Fg-15, 1,1’-((ethane-1,2-diylbis(4,1-phenylene))bis(methylene))bis(4-(pyrrolidin-1-yl)thieno[2,3-d]pyrimidin-1-ium) bromide] | – | 0.0127 | 293 to 295 | 97.5 ± 9.22 | IC50 ([3]; 3D7, Erythrocyte, infected erythrocytes, P. falciparum, read-out: antimalarial activity (IC50), as given in the text): ~0.011 µM |
| [Br-].[Br-].c1cc2c(s1)c(N1CCCC1)nc[n+]2Cc1ccc(CCc2ccc(C[n+]3cnc(N4CCCC4)c4sccc43)cc2)cc1 [Fg-16, 1,1’-((ethane-1,2-diylbis(4,1-phenylene))bis(methylene))bis(4-(pyrrolidin-1-yl)thieno[3,2-d]pyrimidin-1-ium) bromide] | – | 0.0206 | 231 to 233 | 79.7 ± 10.3 | IC50 ([4]; IC50 PfCK b (compound concentration required to inhibit PfCK enzyme by 50%), substrate choline 4 mM, ATP 2 mM): 26.5 ± 2.44 µM |
| [Br-].[Br-].c1cc2c(s1)c(N1CCCC1)nc[n+]2Cc1ccc(-c2ccc(C[n+]3cnc(N4CCCC4)c4sccc43)cn2)nc1 [Fg-17, 1,1’-([2,2’-bipyridine]-5,5’-diylbis(methylene))bis(4-(pyrrolidin-1-yl)thieno[3,2-d]pyrimidin-1-ium) bromide] | – | 0.227 | 330 to 332 | 50.3 ± 7.88 | fold difference in antimalarial activity, bipyridinyl vs biphenylic counterparts [3]: > 10 fold |
| [Br-].[Br-].c1cc2c(N3CCCCCC3)nc[n+](Cc3ccc(-c4ccc(C[n+]5cnc(N6CCCCCC6)c6ccsc65)cn4)nc3)c2s1 [Fg-20, 1,1’-([2,2’-bipyridine]-5,5’-diylbis(methylene))bis(4-(azepan-1-yl)thieno[2,3-d]pyrimidin-1-ium) bromide] | – | 0.0976 | 289 to 291 | 96.6 ± 13.1 | – |
| [Br-].[Br-].c1cc2c(N3CCCCC3)nc[n+](Cc3ccc(CCc4ccc(C[n+]5cnc(N6CCCCC6)c6ccsc65)cc4)cc3)c2s1 [Fg-31, 1,1’-((ethane-1,2-diylbis(4,1-phenylene))bis(methylene))bis(4-(piperidin-1-yl)thieno[2,3-d]pyrimidin-1-ium) bromide] | – | 0.0347 | 295 to 297 | 87.4 ± 2.2 | – |
| [Br-].[Br-].c1cc2c(N3CCCCC3)nc[n+](Cc3ccc(-c4ccc(C[n+]5cnc(N6CCCCC6)c6ccsc65)cn4)nc3)c2s1 [Fg-32, 1,1’-([2,2’-bipyridine]-5,5’-diylbis(methylene))bis(4-(piperidin-1-yl)thieno[2,3-d]pyrimidin-1-ium) bromide] | – | > 0.25 | 267 to 269 | 83.8 ± 9.53 | – |
| C[N+]1(C)CCOC(O)(c2ccc(-c3ccc(C4(O)C[N+](C)(C)CCO4)cc3)cc2)C1 (stereo not drawn) [HC-3] | > 50 | – | – | – | – |
| CN(C)c1cc[n+](Cc2ccc(CCCCc3ccc(C[n+]4ccc(N(C)C)cc4)cc3)cc2)cc1 [MN58b] | 0.0035 | – | – | – | – |
| C/[N+](c1ccc(Cl)cc1)=c1\ccn(Cc2ccc(-c3ccc(Cn4cc/c(=[N+](/C)c5ccc(Cl)cc5)c5ccccc54)cc3)cc2)c2ccccc12 [RSM-932A] | 0.0265 | – | – | – | – |
